This note sets out measurements from patent publication US6492124B1, “Trance activated signal transduction pathways in osteoclasts” (The Rockefeller University, priority 1999, dated 2002).

Common to all, as to format: cell-based, mouse
The test system of assay [1] is osteoclasts. Nature of the assay: Osteoclast differentiation with TRANCE plus CSF-1 (TRAP solution assay). The conditions noted are these: TRANCE 100 ng/ml plus CSF-1 50 ng/ml; LY294002 200 nM and 800 nM. The procedure: FIG. 3. c-Src is required for TRANCE-induced PKB activation and osteoclast survival. (A) c-Src was immunoprecipitated from osteoclasts, dendritic cells and macrophages stimulated with TRANCE (1 μg/ml) for the indicated times using an anti-c-Src-specific monoclonal antibody (327). PTK activity of the c-Src immunprecipitates were measured in vitro using SAM68, a PTK specific substrate. The degree of SAM68 phosphorylation was determined by Western blot analysis using an anti-phospho-tyrosine antibody (4G10) and densitometry. Note that c-Src kinase activity was not detectable in TRANCE-treated macrophages most likely due to low levels of c-Src in these cells (Lacey, et al., supra, 1998). (B) Osteoclasts derived from wild type and c-Src deficient mice were stimulated with TRANCE (5 μg/ml) for 10 min and the levels of phosphorylated PKB (PKB^P), total PKB, and total IκBα were determined as in FIG. 1. (C) Osteoclasts from wild-type (open bars) and c-Src deficient (solid bars) mice were washed and then cultured for an additional 24 hours in media alone (Medium) or in media with TRANCE (5 μg/ml) or CSF-1 (10 ng/ml). TRAP solution assays were performed and percent survival calculated. The experiment was performed in triplicate and the mean values with positive standard deviations are shown. […] Osteoclasts were detected by TRAP solution assays. […]

Assay [2] relates to PKB. Nature of the assay: PKB activation in osteoclasts (phospho-PKB Western blot). The conditions noted are these: for TRANCE-induced PKB activation (phosphorylated form of PKB): osteoclasts pretreated 90 min with inhibitor 10 μM, then TRANCE 1 μg/ml. The protocol: (§1) FIG. 1. […] (A) Mature bone marrow-derived osteoclasts were stimulated for the indicated times with recombinant hCD8-TRANCE (TRANCE; 1 μg/ml). Levels of phosphorylated forms of p44/p42 ERK (p44 ERK^P and p42 ERK^P), IκBα (IκB-α^P) and PKB (PKB^P) in whole cell extracts were determined using phospho-peptide-specific antibodies as indicated in the figure. […] (B) as in (A) except the use of mature bone marrow-derived dendritic cells instead of osteoclasts.
(§2) FIG. 2. […] (A) Osteoclasts were serum starved and then pretreated for 90 min with LY294002 (10 μM), Herbimycin A (Herb. A; 10 μM), and PP1 (10 μM) inhibitors which are specific for PI3-kinase, PTKs, and Src-family kinases, respectively, were stimulated for indicated times with TRANCE (1 μg/ml). Levels of phosphorylated p44/p42 ERK, PKB, and IκB-α were determined as described in FIG. 1. Cells pretreated with vehicle (DMSO) were used as a negative control. (B) as in (A) except the use of mature bone marrow-derived dendritic cells.
(§3) Primary cells and cell lines. […] In brief, bone marrow cells from tibiae and femur of 4-6 week old mice (C57BL/6, Jackson Laboratories) were cultured overnight in media (α-MEM, 10% FCS) in the presence of CSF-1 (5 ng/ml). […] For experiments described in this study, only adherent cells were used after extensive washing. […] After allowing them adhere for 2 hours to a tissue culture dish, contaminating floater cells were washed away and mature dendritic cells were obtained by overnight culture.
Cell stimulation, cell transfection and in vitro assays. In vitro differentiated mature dendritic cells, macrophages and osteoclasts were washed to remove exogenous growth factors, cultured in media with low serum (0.5% FCS, 6 hours), then stimulated by adding various cytokines in the presence or absence of inhibitors for various times as indicated. After stimulation, the cells were washed in ice-cold PBS, and subjected to Western blot analysis or immunoprecipitation as described below.
All cells were harvested and lysed in extraction buffer (20 mM HEPES NaOH (pH 7.4), 150 mM NaCl, 1% Triton X-100, 10% glycerol, 10 mM EDTA, 1 mM Na3VO4, 1 mM phenylmethylsulfonylfluoride, 1 μg/ml leupeptin, and 0.1 U of aprotinin per ml) and cleared by centrifugation to obtain whole cell extracts. Protein assays were performed to ensure equal amounts of lysates were used in each sample.
For orientation: A western blot detects proteins with antibodies after separation by electrophoresis.

Assay [3] has as its system PKB. Description: PKB activation in dendritic cells (phospho-PKB Western blot). The protocol: FIG. 1. TRANCE activates p44/42 ERK, NF-κB and PKB in osteoclasts and dendritic cells. (A) Mature bone marrow-derived osteoclasts were stimulated for the indicated times with recombinant hCD8-TRANCE (TRANCE; 1 μg/ml). Levels of phosphorylated forms of p44/p42 ERK (p44 ERK^P and p42 ERK^P), IκBα (IκB-α^P) and PKB (PKB^P) in whole cell extracts were determined using phospho-peptide-specific antibodies as indicated in the figure. The membranes were stripped and incubated with antibodies against the p44/p42 ERK, IκB-α, and PKB as indicated to confirm that similar amounts of whole cell extracts were analyzed. Note the decrease of IκB-α after 10 min of treatment due to its degradation. (B) as in (A) except the use of mature bone marrow-derived dendritic cells instead of osteoclasts.
FIG. 2. TRANCE-induced PKB activation in osteoclasts and dendritic cells is blocked by inhibitors of PI3-kinase, tyrosine kinases and Src family kinases. (A) Osteoclasts were serum starved and then pretreated for 90 min with LY294002 (10 μM), Herbimycin A (Herb. A; 10 μM), and PP1 (10 μM) inhibitors which are specific for PI3-kinase, PTKs, and Src-family kinases, respectively, were stimulated for indicated times with TRANCE (1 μg/ml). Levels of phosphorylated p44/p42 ERK, PKB, and IκB-α were determined as described in FIG. 1. Cells pretreated with vehicle (DMSO) were used as a negative control. (B) as in (A) except the use of mature bone marrow-derived dendritic cells.
FIG. 6. Cytokine receptors that engage TRAF6 activate PKB through Src-family kinases. (A) Dendritic cells were treated with TNF (10 ng/ml), TRANCE (5 μg/ml), LPS (50 μg/ml), or IL-1α (20 ng/ml) for the indicated times (min). The activation of PKB was determined in whole cell extracts using a phospho-PKB-specific antibody as described in FIG. 1. (B) Dendritic cells were pretreated with vehicle (DMSO) or the Src-family kinase inhibitor, PP1 (10 μM) for 90 minutes followed by a 15 minute treatment with TRANCE (5 μg/ml), LPS (50 μg/ml), or IL-1α (20 ng/ml) or no treatment at all (−). The activation of PKB was determined as described in FIG. 1.
Primary cells and cell lines. Osteoclasts and macrophages were generated from bone marrow precursors as described (Wani, et al., Endocrinology, 140:[…], 1999). In brief, bone marrow cells from tibiae and femur of 4-6 week old mice (C57BL/6, Jackson Laboratories) were cultured overnight in media (α-MEM, 10% FCS) in the presence of CSF-1 (5 ng/ml). After 24 hours, non-adherent cells were harvested, washed, and further cultured in media with CSF-1 (50 ng/ml) plus TRANCE (10 ng/ml) to develop osteoclasts, or with CSF-1 alone to develop macrophages. Using these conditions, after 4 days of culture, greater than 95 percent of the adherent cells were osteoclasts or macrophages. For experiments described in this study, only adherent cells were used after extensive washing. Mature dendritic cells were generated from bone marrow precursors of 4-6 week old female C57BL/6 mice (C57BL/6, Jackson Laboratories) cultured in media (RPMI1640, 5% FBS) and GM-CSF (1:30 cultured supernatant from the J558 cell line, a gift from Dr. R. M. Steinman, The Rockefeller University) for 8 days as previously described (Inaba, et al., J. Exp. Med., 176:1693-1702, 1992). To generate osteoclasts and dendritic cells from c-Src deficient mice, spleen cells, which contain hematopoietic precursors due to extramedullary hematopoeisis, were substituted for bone marrow cells as previously described (Schwartzberg, et al., Genes Dev., 11:2835-2844, 1997). Mature spleen-derived dendritic cells were isolated from spleens treated with collagenase (40 U/ml; Boehinger Mannheim) and subjected to a Nycodenz centrifugation gradient (14.5%; Nycomed) to obtain low density cells. After allowing them adhere for 2 hours to a tissue culture dish, contaminating floater cells were washed away and mature dendritic cells were obtained by overnight culture.
Cell stimulation, cell transfection and in vitro assays. […]

Assay [4] concerns NF-κB. Nature of the assay: NF-κB activation measured by IκB-α phosphorylation/degradation in osteoclasts and dendritic cells (Western blot). As to conditions: osteoclasts and dendritic cells (FIGS. 2A and 2B), inhibitor 10 μM, TRANCE 1 μg/ml. The procedure: as §1, §2, §3
Cell stimulation, cell transfection and in vitro assays. In vitro differentiated mature dendritic cells, macrophages and osteoclasts were washed to remove exogenous growth factors, cultured in media with low serum (0.5% FCS, 6 hours), then stimulated by adding various cytokines in the presence or absence of inhibitors for various times as indicated. After stimulation, the cells were washed in ice-cold PBS, and subjected to Western blot analysis or immunoprecipitation as described below. […]

The test system of assay [5] is mature osteoclasts. Description: Osteoclast survival assay (TRAP solution assay). The conditions noted are these: 24 hours; TRANCE 5 μg/ml or CSF-1 10 ng/ml.
Procedure: TRAP solution assays were performed and percent survival calculated. The experiment was performed in triplicate and the mean values with positive standard deviations are shown. […] (E) Mature osteoclasts were washed extensively and then cultured for an additional 24 hr in media without (−) or with TRANCE (5 μg/ml; +) in the absence or presence of increasing doses (200 nM and 800 nM) of LY294002. TRAP solution assays were performed and percent survival was as described in Experimental Procedures. The experiment was performed in triplicate and the mean values with positive standard deviations are shown.
Osteoclast survival assays. In vitro differentiated mature osteoclasts were washed 3 times in media then further cultured for 24 hr in media alone (control) or in media with TRANCE (5 μg/ml) or CSF-1 (10 ng/ml) in the presence or absence of LY294002 as indicated.
Specific cell survival (%)=(A405, 24 hr−A405. background)*100/(A405, 0 hr−A405, background)

For `O=c1cc(N2CCOCC2)oc2c(-c3ccccc3)cccc12` [LY294002], the osteoclast differentiation result in assay [1] is on record as “did not inhibit”.
Turning to `Cc1ccc(-c2nn(C(C)(C)C)c3ncnc(N)c23)cc1` [PP1, reference compound], the “TRANCE-induced PKB activation (phosphorylated form of PKB)” value in assay [2] was “blocked”; in assay [3] (dendritic cells pretreated 90 min with inhibitor 10 μM, then TRANCE 1 μg/ml) it was “inhibited”. Further, in assay [3] (dendritic cells pretreated with PP1 10 μM 90 minutes, then IL-1α 20 ng/ml 15 minutes), the “activation of PKB by IL-1α” value is “inhibited”. Further, the “activation of PKB by LPS” value in assay [3] (dendritic cells pretreated with PP1 10 μM 90 minutes, then LPS 50 μg/ml 15 minutes) was “inhibited”. For the same molecule, the “NF-κB activation as measured by IκB-α degradation” value in assay [4] is reported as “neither LY294002, herbimycin A, nor PP1 significantly affected”.
As to `COc1cccc(-c2cc(=O)c3ccccc3o2)c1N` [PD98059, reference compound], the “TRANCE-induced PKB activation” value in assay [2] (MEK inhibitor, cell type not stated (osteoclasts and dendritic cells studied), data not shown) is “failed to inhibit”.
Consider `CO[C@H]1[C@@H](OC)C[C@H](C)[C@@H](OC)C2=CC(=O)C=C(NC(=O)/C(C)=C/C=C\[C@H](OC)[C@@H](OC(N)=O)/C(C)=C/[C@@H]1C)C2=O` [herbimycin A, reference compound], for which, in assay [2], the “TRANCE-induced PKB activation (phosphorylated form of PKB)” value was “blocked”. For the same molecule, the “NF-κB activation as measured by IκB-α degradation” value in assay [4] is listed as “neither LY294002, herbimycin A, nor PP1 significantly affected”.

B1: CSF-1: recombinant CSF-1 purchased from R&D Systems (protein, UniProt P09603 33-554, looked up)
Macrophage colony-stimulating …: EEVSEYCSHMIGSGHLQSLQRLIDSQMETSCQITFEFVDQEQLKDPVCYLKKAFLLVQDIMEDTMRFRDNTPNAIAIVQLQELSLRLKSCFTKDYEEHDKACVRTFYETPLQLLEKVKNVFNETKNLLDKDWNIFSKNCNNSFAECSSQDVVTKPDCNCLYPKAIPSSDPASVSPHQPLAPSMAPVAGLTWEDSEGTEGSSLLPGEQPLHTVDPGSAKQRPPRSTCQSFEPPETPVVKDSTIGGSPQPRPSVGAFNPGMEDILDSAMGTNWVPEEASGEASEIPVPQGTELSPSRPGGGSMQTEPARPSNFLSASSPLPASAKGQQPADVTGTALPRVGPVRPTGQDWNHTPQKTDHPSALLRDPPEPGSPRISSLRPQGLSNPSTLSAQPQLSRSHSSGSVLPLGELEGRRSTRDRRSPAEPEGGPASEGAARPLPRFNSVPLTDTGHERQSEGSFSPQLQESVFHLLVPSVILVLLAVGGLLFYRWRRRSHQEPQRADSPLEQPEGSPLTQDDRQVELPV
As to B1, the “cytokine-promoted survival in c-Src−/− osteoclasts compared to wild-type” value in assay [5] is “not reduced”.

B2: IL-1α: recombinant IL-1 purchased from R&D Systems (protein, UniProt P01583 113-271, looked up)
Interleukin-1 alpha: SAPFSFLSNVKYNFMRIIKYEFILNDALNQSIIRANDQYLTAAALHNLDEAVKFDMGAYKSSKDDAKITVILRISKTQLYVTAQDEDQPVLLKEMPEIPKTITGSETNLLFFWETHGTKNYFTSVAHPNLFIATKQDYWVCLAGGPPSITDFQILENQA
Take B2: the “PKB activation in dendritic cells stimulated with cytokine” value in assay [3] (TNF 10 ng/ml, TRANCE 5 μg/ml, LPS 50 μg/ml, IL-1α 20 ng/ml, CD40L data not shown) is given as “activated”.
